The values below come from patent US7655217B2, “Near infrared imaging agent” (Institut fur Diagnosikforschung GmbH, priority 1997, dated 2010).

As usually defined, the LD50 is the dose expected to kill half of the subjects tested.

The conditions of data set [1]: in vivo; cited from earlier work.
Data set [2] addresses albumin (Homo sapiens, UniProt P02768). The following applies: cited from earlier work.
The conditions of data set [3]: cited from earlier work.
Data set [4] has as its system tumour LS 174 T. The data set can be described thus: laser-induced fluorescence imaging of tumour-bearing mouse. Format: in vivo, mouse (Swiss Nude). An excerpt: 2-[7-[1,3-dihydro-3,3-dimethyl-5-(methoxycarbonyl)-1-(4-sulfobutyl)-2H-indol-2-yliden]-1,3,5-heptatrienyl]-3,3 -dimethyl-5-(methoxycarbonyl)-1-(4-sulfobutyl)-3H-indolium, sodium salt at a dose of 3.8 μmol/kg body weight was applied intravenously to an anaesthetized, tumour-bearing mouse (Swiss Nude; tumour LS 174 T at the right hindleg).
The laser-induced fluorescent images were taken prior to, and at various points in time after, applying the substance with a fluorescence imager (at Physikalisch-Technische Bundesanstalt, Berlin Charlottenburg). Radiation was excited using monochromatic laser light at 740 nm by decoupling the radiation via a fibre optical waveguide system. Exciting radiation below 740 nm was removed using a cutoff filter. The laser-induced fluorescence light above 740 nm was recorded using a CCD camera (Charge Coupled Device), and data was stored in the form of black-and-white images.

Chain of albumin (P02768 25-609, species assumed): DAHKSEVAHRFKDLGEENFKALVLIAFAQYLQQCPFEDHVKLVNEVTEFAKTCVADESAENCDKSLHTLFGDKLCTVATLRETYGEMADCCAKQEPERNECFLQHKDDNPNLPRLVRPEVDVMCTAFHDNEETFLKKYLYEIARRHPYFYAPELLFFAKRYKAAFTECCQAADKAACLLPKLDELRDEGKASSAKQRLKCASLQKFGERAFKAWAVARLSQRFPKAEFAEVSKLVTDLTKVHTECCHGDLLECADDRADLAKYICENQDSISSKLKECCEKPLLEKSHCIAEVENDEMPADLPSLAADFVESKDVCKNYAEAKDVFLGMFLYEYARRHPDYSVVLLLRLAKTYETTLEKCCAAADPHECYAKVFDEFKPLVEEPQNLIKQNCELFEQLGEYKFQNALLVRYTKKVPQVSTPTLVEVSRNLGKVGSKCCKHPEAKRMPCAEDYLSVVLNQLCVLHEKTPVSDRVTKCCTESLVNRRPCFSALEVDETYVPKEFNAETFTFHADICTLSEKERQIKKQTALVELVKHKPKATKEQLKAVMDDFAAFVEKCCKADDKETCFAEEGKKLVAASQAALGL

On to `CC1(C)C(/C=C/C=C/C=C/C=C2\N(CCCCS(=O)(=O)O)c3ccc4ccccc4c3C2(C)C)=[N+](CCCCS(=O)(=O)[O-])c2ccc3ccccc3c21` [Indocyanine green], for which the LD50 in data set [1] is 0.84 mmol/kg. Also, the binding to albumin result in data set [2] is “up to 100%”. Also, in data set [3] (dissolved), the stability when dissolved entry is recorded as “unstable when dissolved”. Besides, the “applicability in saline media” value in data set [3] (saline media) is given as “precipitation will occur”.

On to `COC(=O)c1ccc2c(c1)C(C)(C)C(=CC=CC=CC=CC1=[N+](CCCCS(=O)(=O)O)c3ccc(C(=O)OC)cc3C1(C)C)N2CCCCS(=O)(=O)O.[Na+]` [Example 8, 2-[7-[1,3-dihydro-3,3-dimethyl-5-(methoxycarbonyl)-1-(4-sulfobutyl)-2H-indol-2-yliden]-1,3,5-heptatrienyl]-3,3-dimethyl-5-(methoxycarbonyl)-1-(4-sulfobutyl)-3H-indolium, sodium salt], for which, in data set [4] (30 seconds after i.v. 3.8 μmol/kg body weight, excitation 740 nm), the fluorescent intensity distribution result is “values being increased in the hepatic and pulmonary regions and in the tumour”. The “fluorescent intensity in the tumour as compared with the rest of the body” value in data set [4] (18 hours after i.v. 3.8 μmol/kg body weight) was “clearly increased fluorescent intensity”. The “distribution of the substance in the animal” value in data set [4] (up to 1 h after i.v. 3.8 μmol/kg body weight) was “spreads more and more throughout the animal”.
